From paper PMC6421522, “Designing Dual Inhibitors of Anaplastic Lymphoma Kinase (ALK) and Bromodomain-4 (BRD4) by Tuning Kinase Selectivity” (Journal of Medicinal Chemistry, 2019)

Test system: HeLa cells
Test: Mitotic arrest and mitotic markers in HeLa cells (Western blot)
Type: cell-based
Protocol: Protein extracts of cells were prepared by lysis in radioimmunoprecipitation assay buffer (Sigma) supplemented with protease inhibitors (complete protease inhibitor cocktail, Roche). Protein extracts (25 μg) were separated by sodium dodecyl sulfate-polyacrylamide gel electrophoresis and transferred onto poly(vinylidene difluoride) membranes using the Trans-Blot Turbo transfer system (BioRad). After blocking with 5% bovine serum albumin in PBS with 0.1% Tween-20 for 30 min, the membrane was incubated with primary antibodies for 1 h at room temperature. Horseradish peroxidase-linked secondary antibodies were incubated 30 min at room temperature followed by enhanced chemiluminescence (ECL) detection (ECL Western blot substrate, Pierce).
Primary antibodies were obtained from the following sources: PLK-1 (05-844) and phosphohistone H3 (Ser10) (05806) from Millipore; pPlk1-T210 (5472) from Cell Signaling; pPlk1-S137 (21738) from Abcam; and cyclin B1 (GNS1) and β-actin (A2228) from Sigma-Aldrich served as loading control.

CCOc1cc(C2CCN(C)CC2)ccc1Nc1ncc2c(n1)N(Cc1cc(C)cs1)[C@H](CC)C(=O)N2C [16k, (R)-2-((2-Ethoxy-4-(1-methylpiperidin-4-yl)phenyl)amino)-7-ethyl-5-methyl-8-((4-methylthiophen-2-yl)methyl)-7,8-dihydropteridin-6(5H)-one]
concentration up to which no increase in mitotic markers and PLK-1 phosphorylation sites (HeLa cells, Western blot): > 10 µM | selectivity window for ALK^F1174L over PLK-1 in cells (based on the cellular data): 10–20 fold | expected cellular PLK-1 potency after similar drop-off (extrapolated from BI-2536 drop-off): > 2500 nM
